From patent publication US20260022142A1, “MACROCYCLIC IMMUNOMODULATORS” (Bristol-Myers Squibb Company, priority 2022, published 2026)
Bridge positions count the residues as written; N and C are the ends. Square brackets hold non-standard residues; d marks the D form. Peptide text beside a SMILES is read from it. * marks the point of attachment. ξ: configuration not given here. Phe(3-CF3) = N[C@@H](Cc1cccc(C(F)(F)F)c1)C(=O)O; Phe(4-CONH2) = NC(=O)c1ccc(C[C@H](N)C(=O)O)cc1; Bip = N[C@@H](Cc1ccc(-c2ccccc2)cc1)C(=O)O; NH(CH2)14COOH = O=C(O)CCCCCCCCCCCCCCN*; Phe(3-Me) = Cc1cccc(C[C@H](N)C(=O)O)c1; Phe(4-Me) = Cc1ccc(C[C@H](N)C(=O)O)cc1; Val(3-OH) = CC(C)(O)[C@H](N)C(=O)O; hArg = N=C(N)NCCCC[C@H](N)C(=O)O; 4Pal = N[C@@H](Cc1ccncc1)C(=O)O; Cha = N[C@@H](CC1CCCCC1)C(=O)O; Cit = NC(=O)NCCC[C@H](N)C(=O)O; Thr(3ξ) = CC(O)[C@H](N)C(=O)O; Carboxymethyl = O=C(O)C*; Orn = NCCC[C@H](N)C(=O)O; Aun = NCCCCCCCCCCC(=O)O; Dab = NCC[C@H](N)C(=O)O; AEEA = NCCOCCOCC(=O)O

target: T1, PD-1/PD-L1 interaction (PE-labeled human PD-L1-Ig binding to Jurkat cell line over-expressing human PD-1) (Homo sapiens, UniProt Q15116); assay: Jurkat-PD-1 Cell Binding High-Content Screening Assay (CBA); type: cell-based; conditions: Jurkat cell line over-expressing human PD-1; PE-labeled PD-L1-Ig 20 nM final; read-out: Jurkat hPD1-PDL1 IC50
T1 construct: expressed in transfected cells; host or cells: Jurkat
T1 sequence (Q15116 25-288): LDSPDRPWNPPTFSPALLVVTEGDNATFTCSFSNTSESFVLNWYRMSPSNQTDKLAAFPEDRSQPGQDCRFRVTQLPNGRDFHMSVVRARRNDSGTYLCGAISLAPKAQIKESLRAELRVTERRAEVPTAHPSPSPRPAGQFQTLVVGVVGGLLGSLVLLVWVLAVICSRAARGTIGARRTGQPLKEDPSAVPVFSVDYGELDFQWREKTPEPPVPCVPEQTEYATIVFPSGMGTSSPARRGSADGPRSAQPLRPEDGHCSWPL
How it was run: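 Binding of fluorescent PD-L1-Ig (20 nM final) to Jurkat-PD-1 cells was measured by automated imaging after 1 h, following a 2 h compound pre-treatment at 37° C.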

| Structure (SMILES) | IC50 [nM] |
| --- | --- |
| CC(C)C[C@H]1NC(=O)[C@H](CCCN)NC(=O)[C@H](Cc2ccc(OCC(=O)O)cc2)NC(=O)[C@H](Cc2ccc(-c3ccccc3)cc2)NC(=O)[C@H](Cc2ccc(OCC(=O)O)cc2)NC(=O)[C@H](Cc2cccc(C(F)(F)F)c2)NC(=O)[C@H](CC(=O)O)NC(=O)[C@H](Cc2ccc(OCC(=O)O)cc2)NC(=O)[C@H](Cc2c[nH]cn2)NC(=O)CSC[C@@H](C(=O)N[C@@H](CCN)C(=O)NCCCCCCCCCCCCCCC(=O)O)NC(=O)[C@H](CCC(=O)O)NC(=O)[C@H](C(C)(C)O)NC(=O)[C@H](CC2CCCCC2)NC(=O)[C@H](CCN)NC1=O [Compound 3868] ({CH2CO}-HY(Carboxymethyl)D[Phe(3-CF3)]Y(Carboxymethyl)[Bip]Y(Carboxymethyl)[Orn][dL][Dab][Cha][Val(3-OH)]EC[Dab]-{NH(CH2)14COOH}; thioether N-14) | 156 |
| Cc1cccc(C[C@@H]2NC(=O)[C@H](CC(=O)O)NC(=O)[C@H](Cc3ccc(OCC(=O)O)cc3)NC(=O)[C@H](CCCNC(=N)N)NC(=O)CSC[C@@H](C(=O)N[C@@H](CCN)C(=O)NCCCCCCCCCCC(=O)O)NC(=O)[C@H]([C@@H](C)O)NC(=O)[C@H](C(C)C)NC(=O)[C@H](CC3CCCCC3)NC(=O)[C@H](CCN)NC(=O)[C@@H](CC(C)C)NC(=O)[C@H](CCCN)NC(=O)[C@H](Cc3ccc(OCC(=O)O)cc3)NC(=O)[C@H](Cc3ccc(-c4ccccc4)cc3)NC(=O)[C@H](Cc3ccc(OCC(=O)O)cc3)NC2=O)c1 [Compound 2085] ({CH2CO}-RY(Carboxymethyl)D[Phe(3-Me)]Y(Carboxymethyl)[Bip]Y(Carboxymethyl)[Orn][dL][Dab][Cha]VTC[Dab][Aun]-OH; thioether N-14) | 8.6 |
| Cc1ccc(C[C@@H]2NC(=O)[C@H](Cc3cccc(C)c3)NC(=O)[C@H](CC(=O)O)NC(=O)[C@H](Cc3ccc(OCC(=O)O)cc3)NC(=O)[C@H](Cc3ccncc3)NC(=O)CSC[C@@H](C(=O)N[C@@H](CCN)C(=O)NCCCCCCCCCCC(=O)O)NC(=O)[C@H](CO)NC(=O)[C@H](C(C)(C)O)NC(=O)[C@H](CC3CCCCC3)NC(=O)[C@H](CCN)NC(=O)[C@@H](CC(C)C)NC(=O)[C@H](CCCN)NC(=O)[C@H](Cc3ccc(OCC(=O)O)cc3)NC(=O)[C@H](Cc3ccc(-c4ccccc4)cc3)NC2=O)cc1 [Compound 2190] ({CH2CO}-[4Pal]Y(Carboxymethyl)D[Phe(3-Me)][Phe(4-Me)][Bip]Y(Carboxymethyl)[Orn][dL][Dab][Cha][Val(3-OH)]SC[Dab][Aun]-OH; thioether N-14) | 19.6 |
| Cc1cccc(C[C@@H]2NC(=O)[C@H](CC(=O)O)NC(=O)[C@H](Cc3ccc(C(N)=O)cc3)NC(=O)[C@H](Cc3ccncc3)NC(=O)CSC[C@@H](C(=O)N[C@@H](CCN)C(=O)NCCOCCOCC(=O)NCCCCCCCCCCC(=O)O)NC(=O)[C@H](CO)NC(=O)[C@H](C(C)(C)O)NC(=O)[C@H](CC3CCCCC3)NC(=O)[C@H](CCN)NC(=O)[C@@H](CC(C)C)NC(=O)[C@H](CCCN)NC(=O)[C@H](Cc3ccc(OCC(=O)O)cc3)NC(=O)[C@H](Cc3ccc(-c4ccccc4)cc3)NC(=O)[C@H](Cc3ccc(OCC(=O)O)cc3)NC2=O)c1 [Compound 3750] ({CH2CO}-[4Pal][Phe(4-CONH2)]D[Phe(3-Me)]Y(Carboxymethyl)[Bip]Y(Carboxymethyl)[Orn][dL][Dab][Cha][Val(3-OH)]SC[Dab][AEEA][Aun]-OH; thioether N-14) | 125 |

Results, then the molecule that gave them:

| IC50 [nM] | Structure (SMILES) |
| --- | --- |
| 7.6 | Cc1cccc(C[C@@H]2NC(=O)[C@H](CC(=O)O)NC(=O)[C@H](Cc3ccc(OCC(=O)O)cc3)NC(=O)[C@H](C(C)O)NC(=O)CSC[C@@H](C(=O)N[C@H](CC(N)=O)C(=O)NCCCCCCCCCCC(=O)O)NC(=O)[C@H](C(C)O)NC(=O)[C@H](C(C)C)NC(=O)[C@H](CC3CCCCC3)NC(=O)[C@H](CCN)NC(=O)[C@@H](CC(C)C)NC(=O)[C@H](CCCN)NC(=O)[C@H](CCC(N)=O)NC(=O)[C@H](Cc3ccc(-c4ccccc4)cc3)NC(=O)[C@H](C(C)C)NC2=O)c1 (stereo partly drawn) [Compound 3430] ({CH2CO}-[Thr(3ξ)]Y(Carboxymethyl)D[Phe(3-Me)]V[Bip]Q[Orn][dL][Dab][Cha]V[Thr(3ξ)]C[dN][Aun]-OH; thioether N-14) |
| 13.3 | Cc1cccc(C[C@@H]2NC(=O)[C@H](CC(=O)O)NC(=O)[C@H](Cc3ccc(OCC(=O)O)cc3)NC(=O)[C@H](C(C)O)NC(=O)CSC[C@@H](C(=O)N[C@@H](CCCCN)C(=O)NCCCCCCCCCCC(=O)O)NC(=O)[C@H](CCCCN)NC(=O)[C@H](C(C)C)NC(=O)[C@H](CC3CCCCC3)NC(=O)[C@H](CCN)NC(=O)[C@@H](CC(C)C)NC(=O)[C@H](CCCN)NC(=O)[C@H](C(C)C)NC(=O)[C@H](Cc3ccc(-c4ccccc4)cc3)NC(=O)[C@H](C(C)C)NC2=O)c1 (stereo partly drawn) [Compound 3472] ({CH2CO}-[Thr(3ξ)]Y(Carboxymethyl)D[Phe(3-Me)]V[Bip]V[Orn][dL][Dab][Cha]VKCK[Aun]-OH; thioether N-14) |
| 10.5 | Cc1cccc(C[C@@H]2NC(=O)[C@H](CC(=O)O)NC(=O)[C@H](Cc3ccc(OCC(=O)O)cc3)NC(=O)[C@H](CCCNC(=N)N)NC(=O)CSC[C@@H](C(=O)N[C@H](CC(N)=O)C(=O)NCCCCCCCCCCC(=O)O)NC(=O)[C@H](CCC(N)=O)NC(=O)[C@H](C(C)C)NC(=O)[C@H](CC3CCCCC3)NC(=O)[C@H](CCN)NC(=O)[C@@H](CC(C)C)NC(=O)[C@H](CCCN)NC(=O)[C@H](CCCNC(N)=O)NC(=O)[C@H](Cc3ccc(-c4ccccc4)cc3)NC(=O)[C@H](C(C)C)NC2=O)c1 [Compound 3434] ({CH2CO}-RY(Carboxymethyl)D[Phe(3-Me)]V[Bip][Cit][Orn][dL][Dab][Cha]VQC[dN][Aun]-OH; thioether N-14) |
| 29.2 | CC(C)C[C@H]1NC(=O)[C@H](CCCN)NC(=O)[C@H](C(C)C)NC(=O)[C@H](Cc2ccc(-c3ccccc3)cc2)NC(=O)[C@H](C(C)C)NC(=O)[C@H](Cc2c[nH]c3ccccc23)NC(=O)[C@H](CC(=O)O)NC(=O)[C@H](Cc2ccc(OCC(=O)O)cc2)NC(=O)[C@H](C(C)O)NC(=O)CSC[C@@H](C(=O)N[C@@H](CCN)C(=O)NCCCCCCCCCCC(=O)O)NC(=O)[C@H](CCCCN)NC(=O)[C@H](C(C)O)NC(=O)[C@H](CC2CCCCC2)NC(=O)[C@H](CCN)NC1=O (stereo partly drawn) [Compound 3673] ({CH2CO}-[Thr(3ξ)]Y(Carboxymethyl)DWV[Bip]V[Orn][dL][Dab][Cha][Thr(3ξ)]KC[Dab][Aun]-OH; thioether N-14) |
| 129 | CC(C)C[C@@H]1NC(=O)[C@H](Cc2c[nH]c3ccccc23)NC(=O)[C@H](CC(=O)O)NC(=O)[C@H](Cc2ccc(OCC(=O)O)cc2)NC(=O)[C@H](CCCCNC(=N)N)NC(=O)CSC[C@@H](C(=O)N[C@@H](C)C(=O)NCCOCCOCC(=O)N[C@@H](CCCCN)C(=O)NCCOCCOCC(=O)NCCCCCCCCCCCCCCC(=O)O)NC(=O)[C@H](CO)NC(=O)[C@H](C(C)C)NC(=O)[C@H](CC2CCCCC2)NC(=O)[C@H](CCN)NC(=O)[C@@H](CC(C)C)NC(=O)[C@H](CCCN)NC(=O)[C@H](C(C)C)NC(=O)[C@H](Cc2ccc(-c3ccccc3)cc2)NC1=O [Compound 3006] ({CH2CO}-[hArg]Y(Carboxymethyl)DWL[Bip]V[Orn][dL][Dab][Cha]VSCA[AEEA]K[AEEA]-{NH(CH2)14COOH}; thioether N-14) |
